The source of these data is BindingDB's records for doi:10.1016/j.bmc.2006.03.027 (Abbott Laboratories, 2006).

For the test, the target named is Transient receptor potential cation channel subfamily V member 1 (Homo sapiens, UniProt Q8NER1). The test is described as follows: Ca2+ Influx Functional Assay for the Determination of in Vitro Activity. The note with it: pH 7.4; 22 °C.
Chain of Transient receptor potential cation channel subfamily V member 1 (Q8NER1 whole entry): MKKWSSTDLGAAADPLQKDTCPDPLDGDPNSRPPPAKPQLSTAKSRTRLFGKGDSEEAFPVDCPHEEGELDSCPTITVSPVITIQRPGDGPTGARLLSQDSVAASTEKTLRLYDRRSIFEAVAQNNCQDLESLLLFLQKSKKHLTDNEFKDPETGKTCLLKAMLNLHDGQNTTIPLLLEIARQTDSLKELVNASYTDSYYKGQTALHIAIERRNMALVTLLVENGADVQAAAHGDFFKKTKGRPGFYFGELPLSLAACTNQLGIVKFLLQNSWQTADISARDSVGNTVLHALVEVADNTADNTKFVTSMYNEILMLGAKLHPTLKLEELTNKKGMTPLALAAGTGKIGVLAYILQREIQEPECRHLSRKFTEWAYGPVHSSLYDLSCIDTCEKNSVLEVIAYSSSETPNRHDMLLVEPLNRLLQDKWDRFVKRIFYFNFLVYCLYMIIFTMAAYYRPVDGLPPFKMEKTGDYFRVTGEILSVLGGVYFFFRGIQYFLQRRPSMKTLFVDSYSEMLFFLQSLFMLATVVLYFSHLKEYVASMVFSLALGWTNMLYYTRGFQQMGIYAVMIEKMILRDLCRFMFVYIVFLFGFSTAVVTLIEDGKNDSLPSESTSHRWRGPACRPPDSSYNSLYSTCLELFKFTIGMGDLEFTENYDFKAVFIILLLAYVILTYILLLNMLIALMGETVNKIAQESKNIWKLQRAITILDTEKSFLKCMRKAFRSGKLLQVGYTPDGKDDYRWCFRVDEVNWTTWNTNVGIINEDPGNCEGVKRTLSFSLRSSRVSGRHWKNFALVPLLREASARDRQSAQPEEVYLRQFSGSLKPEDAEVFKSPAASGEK
Compound `O=C(NCc1ccc(Cl)c(Cl)c1)Nc1cccc2[nH]ncc12` [1-[(3,4-dichlorophenyl)methyl]-3-1H-indazol-4-ylurea] gave an EC50 of 21 nM.
Then `O=C(NCc1ccc(Cl)c(Cl)c1)Nc1cccc2[nH]ccc12` [1-[(3,4-dichlorophenyl)methyl]-3-1H-indol-4-ylurea], with 220 nM; and `Cn1ncc2c(NC(=O)NCc3ccc(Cl)c(Cl)c3)cccc21` [1-[(3,4-dichlorophenyl)methyl]-3-(1-methyl-1H-indazol-4-yl)urea], with 120 nM.
Then `O=C(NCc1cccc(F)c1)Nc1cccc2[nH]ccc12` [1-[(3-fluorophenyl)methyl]-3-1H-indol-4-ylurea], with 2700 nM; and `O=C(NCc1ccc(Br)cc1)Nc1cccc2[nH]ncc12` [1-[(4-bromophenyl)methyl]-3-1H-indazol-4-ylurea], with 13 nM; and `O=C(NCc1ccc(Br)cc1)Nc1ccc2[nH]ncc2c1` [1-[(4-bromophenyl)methyl]-3-1H-indazol-5-ylurea], with 3540 nM.
Then `O=C(NCc1ccc(Br)cc1)Nc1cccc2[nH]ccc12` [1-[(4-bromophenyl)methyl]-3-1H-indol-4-ylurea], with 110 nM; and `O=C(NCc1ccc(Br)cc1)Nc1ccc2[nH]ccc2c1` [1-[(4-bromophenyl)methyl]-3-1H-indol-5-ylurea], with 5850 nM; and `O=C(NCc1ccc(Br)cc1)Nc1ccc2cc[nH]c2c1` [1-[(4-bromophenyl)methyl]-3-1H-indol-6-ylurea], with 3010 nM.
Compound `O=C(NCc1ccc(Br)cc1)Nc1cccc2cc[nH]c12` [1-[(4-bromophenyl)methyl]-3-1H-indol-7-ylurea] yielded a concentration for a half-maximal effect (EC50) of 180 nM. Against the preceding compound, the EC50 is about 17-fold lower.
Regarding `Cn1ncc2c(NC(=O)NCc3ccc(Br)cc3)cccc21` [1-[(4-bromophenyl)methyl]-3-(1-methyl-1H-indazol-4-yl)urea], the EC50 is 76 nM.
With `Cc1[nH]c2cccc(NC(=O)NCc3ccc(Br)cc3)c2c1C` [1-[(4-bromophenyl)methyl]-3-(2,3-dimethyl-1H-indol-4-yl)urea], it took 1470 nM to reach a half-maximal effect (EC50).
Then `Cn1cc2c(NC(=O)NCc3ccc(Br)cc3)cccc2n1` [1-[(4-bromophenyl)methyl]-3-(2-methyl-2H-indazol-4-yl)urea], with 1390 nM; and `O=C(NCc1ccc(Cl)cc1)Nc1cccc2[nH]ccc12` [1-[(4-chlorophenyl)methyl]-3-1H-indol-4-ylurea], with 150 nM; and `Cn1ncc2c(NC(=O)NCc3ccc(Cl)cc3)cccc21` [1-[(4-chlorophenyl)methyl]-3-(1-methyl-1H-indazol-4-yl)urea], with 60 nM.
Turning to `O=C(NCc1ccc(F)cc1)Nc1cccc2[nH]ccc12` [1-[(4-fluorophenyl)methyl]-3-1H-indol-4-ylurea], the EC50 was 2710 nM.
In turn, `Cn1ncc2c(NC(=O)NCc3ccc(F)cc3)cccc21` [1-[(4-fluorophenyl)methyl]-3-(1-methyl-1H-indazol-4-yl)urea] came in with an EC50 of 720 nM. Against the preceding compound, the EC50 is about 3.8-fold lower.
`O=C(NCc1ccc(C(F)(F)F)c(F)c1)Nc1cccc2[nH]ccc12` [1-{[3-fluoro-4-(trifluoromethyl)phenyl]methyl}-3-1H-indol-4-ylurea] gave an EC50 of 40 nM.
`O=C(NCc1ccc(Cl)c(C(F)(F)F)c1)Nc1cccc2[nH]ccc12` [1-{[4-chloro-3-(trifluoromethyl)phenyl]methyl}-3-1H-indol-4-ylurea]: the EC50 came out at 70 nM.
`O=C(Cc1cccc2[nH]ncc12)NCc1ccc(C(F)(F)F)cc1` [2-(1H-indazol-4-yl)-N-{[4-(trifluoromethyl)phenyl]methyl}acetamide] registered an EC50 of 10200 nM.
Then `O=C(Cc1cccc2[nH]ccc12)NCc1ccc(C(F)(F)F)cc1` [2-(1H-indol-4-yl)-N-{[4-(trifluoromethyl)phenyl]methyl}acetamide], with 520 nM.
Then `O=C(NCc1ccc(Br)cc1)Nc1cccc2nc[nH]c12` [3-1H-1,3-benzodiazol-4-yl-1-[(4-bromophenyl)methyl]urea], with 2470 nM; and `O=C(NCc1cccc(C(F)(F)F)c1)Nc1cccc2[nH]ncc12` [3-1H-indazol-4-yl-1-{[3-(trifluoromethyl)phenyl]methyl}urea], with 44 nM; and `O=C(NCc1ccc(OC(F)(F)F)cc1)Nc1cccc2[nH]ncc12` [3-1H-indazol-4-yl-1-{[4-(trifluoromethoxy)phenyl]methyl}urea], with 11 nM.
Then `O=C(NCc1ccc(C(F)(F)F)cc1)Nc1cccc2[nH]ncc12` [3-1H-indazol-4-yl-1-{[4-(trifluoromethyl)phenyl]methyl}urea], with 9 nM; and `O=C(NCc1ccc(OC(F)(F)F)cc1)Nc1cccc2[nH]ccc12` [3-1H-indol-4-yl-1-{[4-(trifluoromethoxy)phenyl]methyl}urea], with 80 nM; and `O=C(NCc1ccc(C(F)(F)F)cc1)Nc1cccc2[nH]ccc12` [3-1H-indol-4-yl-1-{[4-(trifluoromethyl)phenyl]methyl}urea], with 60 nM.
`Cn1ncc2c(NC(=O)NCc3ccc(OC(F)(F)F)cc3)cccc21` [3-(1-methyl-1H-indazol-4-yl)-1-{[4-(trifluoromethoxy)phenyl]methyl}urea]: the EC50 was 35 nM.
Compound `O=C(Nc1cccc2[nH]ccc12)OCc1ccc(C(F)(F)F)cc1` [[4-(trifluoromethyl)phenyl]methyl N-(1H-indol-4-yl)carbamate] gave a half-maximal effective concentration (EC50) of 940 nM.

One may read the EC50 as the concentration that produces a half-maximal response. Higher therefore signals a need for much substance.
